Measurements reported in US12599136B2, “Substituted isophthalic acid diamides and their use as herbicides” (Bayer Aktiengesellschaft, priority 2020, dated 2026).

Experiments:
Format in all cases: in vivo
[1] = test system: Matricaria inodora; experiment: Post-emergence herbicidal action against MATIN; conditions: visual assessment about 3 weeks after treatment
Method in brief: (§1)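 Spray, one-leaf stage: WP or EC compound in water, 600–800 l/ha, 0.2% wetting agent. Plants held about 3 weeks in the greenhouse, then visually rated in percent of kill compared with untreated controls.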

[2] = test system: Pharbitis purpurea; experiment: Post-emergence herbicidal action against PHBPU; conditions: visual assessment about 3 weeks after treatment
Method in brief: as §1

[3] = test system: Stellaria media; experiment: Post-emergence herbicidal action against STEME; conditions: visual assessment about 3 weeks after treatment
Method in brief: as §1

[4] = test system: Viola tricolor; experiment: Pre-emergence herbicidal action against VIOTR
Method in brief: (§2)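 Pre-emergence soil-surface spray of formulated compound (WP or EC; 600 to 800 l/ha; 0.2% wetting agent) over seeds sown in sandy loam. After 3 weeks under greenhouse conditions, damage is estimated visually in percent against untreated plants.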

[5] = test system: Avena fatua; experiment: Pre-emergence herbicidal action against AVEFA; conditions: visual score after 3 weeks vs untreated controls
Method in brief: as §2

[6] = test system: Setaria viridis; experiment: Post-emergence herbicidal action against SETVI; conditions: 80 g/ha, visual assessment about 3 weeks after treatment
Method in brief: as §1

[7] = test system: Polygonum convolvulus; experiment: Post-emergence herbicidal action against POLCO; conditions: visual assessment about 3 weeks after treatment
Procedure: (§3) Seeds of monocotyledonous and dicotyledonous weed and crop plants are laid out in sandy loam soil in wood-fiber pots, covered with soil and cultivated in a greenhouse under good growth conditions. 2 to 3 weeks after sowing, the test plants are treated at the one-leaf stage. The compounds of the invention, formulated in the form of wettable powders (WP) or as emulsion concentrates (EC), are then sprayed onto the green parts of the plants in the form of an aqueous suspension or emulsion at a water application rate equivalent to 600 to 800 l/ha, with addition of 0.2% wetting agent. After the test plants have been left to stand in the greenhouse under optimal growth conditions for about 3 weeks, the action of the preparations is assessed visually in comparison to untreated controls (herbicidal action in percent (%): 100% activity=the plants have died, 0% activity=like control plants). […] The tables below illustrate, in an illustrative manner, the post-emergence herbicidal action of the compounds of the invention, the herbicidal activity being stated in percent.

[8] = test system: Cyperus esculentus; experiment: Pre-emergence herbicidal action against CYPES; conditions: visual score after 3 weeks vs untreated controls
Method in brief: as §2

[9] = test system: Lolium rigidum; experiment: Post-emergence herbicidal action against LOLRI; conditions: 80 g/ha
Procedure: as §3

[10] = test system: Stellaria media; experiment: Pre-emergence herbicidal action against STEME
Method in brief: as §2

[11] = test system: Lolium rigidum; experiment: Pre-emergence herbicidal action against LOLRI
Method in brief: as §2

[12] = test system: Matricaria inodora; experiment: Pre-emergence herbicidal action against MATIN; conditions: visual score after 3 weeks vs untreated controls
Method in brief: as §2

[13] = test system: Viola tricolor; experiment: Post-emergence herbicidal action against VIOTR
Method in brief: as §1

[14] = test system: Setaria viridis; experiment: Pre-emergence herbicidal action against SETVI
Method in brief: as §2

[15] = test system: Echinochloa crus-galli; experiment: Pre-emergence herbicidal action against ECHCG; conditions: visual score after 3 weeks vs untreated controls
Method in brief: as §2

[16] = test system: Abutilon theophrasti; experiment: Post-emergence herbicidal action against ABUTH
Method in brief: as §1

[17] = test system: Veronica persica; experiment: Post-emergence herbicidal action against VERPE; conditions: 80 g/ha, visual assessment about 3 weeks after treatment
Method in brief: as §1

[18] = test system: Alopecurus myosuroides; experiment: Post-emergence herbicidal action against ALOMY; conditions: 80 g/ha
Method in brief: as §1

[19] = test system: Veronica persica; experiment: Pre-emergence herbicidal action against VERPE; conditions: 320 g/ha
Method in brief: as §2

[20] = test system: Avena fatua; experiment: Post-emergence herbicidal action against AVEFA; conditions: visual assessment about 3 weeks after treatment
Method in brief: as §1

[21] = test system: Hordeum murinum; experiment: Pre-emergence herbicidal action against HORMU; conditions: 320 g/ha; visual score after 3 weeks vs untreated controls
Excerpt: Seeds of monocotyledonous and dicotyledonous weed plants and crop plants are laid out in sandy loam soil in wood-fiber pots and covered with soil. The compounds of the invention, formulated in the form of wettable powders (WP) or as emulsion concentrates (EC), are then applied to the surface of the covering soil in the form of an aqueous suspension or emulsion at a water application rate equivalent to 600 to 800 l/ha, with addition of 0.2% wetting agent. After the treatment, the pots are placed in a greenhouse and kept under good growth conditions for the trial plants. The damage to the test plants is scored visually after a test period of 3 weeks by comparison with untreated controls (herbicidal activity in percent (%): 100% activity=the plants have died, 0% activity=like control plants). […] The tables below illustrate, in an illustrative manner, the post-emergence herbicidal action of the compounds of the invention, the herbicidal activity being stated in percent.

[22] = test system: Amaranthus retroflexus; experiment: Post-emergence herbicidal action against AMARE; conditions: visual assessment about 3 weeks after treatment
Method in brief: as §1

[23] = test system: Amaranthus retroflexus; experiment: Pre-emergence herbicidal action against AMARE; conditions: visual score after 3 weeks vs untreated controls
Method in brief: as §2

[24] = test system: Abutilon theophrasti; experiment: Pre-emergence herbicidal action against ABUTH; conditions: visual score after 3 weeks vs untreated controls
Method in brief: as §2

[25] = test system: Echinochloa crus-galli; experiment: Post-emergence herbicidal action against ECHCG; conditions: visual assessment about 3 weeks after treatment
Method in brief: as §1

[26] = test system: Pharbitis purpurea; experiment: Pre-emergence herbicidal action against PHBPU; conditions: 320 g/ha; visual score after 3 weeks vs untreated controls
Method in brief: as §2

[27] = test system: Alopecurus myosuroides; experiment: Pre-emergence herbicidal action against ALOMY; conditions: 320 g/ha; visual score after 3 weeks vs untreated controls
Method in brief: as §2

[28] = test system: Polygonum convolvulus; experiment: Pre-emergence herbicidal action against POLCO
Method in brief: as §2

CCn1nnnc1NC(=O)c1ccc(C(F)(F)F)c(C(=O)n2cccn2)c1Cl [Example 2-153]
Post-emergence action against MATIN in % ([1]; 5 g/ha): 90%
Post-emergence action against MATIN in % ([1]; 20 g/ha): 100%
Post-emergence action against MATIN in % ([1]; 80 g/ha): 100%
Post-emergence action against PHBPU in % ([2]; 20 g/ha): 80%
Post-emergence action against PHBPU in % ([2]; 80 g/ha): 90%
Post-emergence action against STEME in % ([3]; 5 g/ha): 100%
Post-emergence action against STEME in % ([3]; 20 g/ha): 100%
Post-emergence action against STEME in % ([3]; 80 g/ha): 100%
Pre-emergence action against VIOTR ([4]; 80 g/ha): 100%
Pre-emergence action against VIOTR ([4]; 320 g/ha): 100%
Pre-emergence action against AVEFA ([5]; 80 g/ha): 100%
Pre-emergence action against AVEFA ([5]; 320 g/ha): 100%
Post-emergence action against SETVI in % [6]: 100%
Post-emergence action against POLCO in % ([7]; 20 g/ha): 90%
Post-emergence action against POLCO in % ([7]; 80 g/ha): 100%
Pre-emergence action against CYPES ([8]; 80 g/ha): 100%
Pre-emergence action against CYPES ([8]; 320 g/ha): 100%
Post-emergence action against LOLRI in % [9]: 80%
Pre-emergence action against STEME ([10]; 20 g/ha): 90%
Pre-emergence action against STEME ([10]; 80 g/ha): 100%
Pre-emergence action against STEME ([10]; 320 g/ha): 100%
Pre-emergence action against LOLRI ([11]; 80 g/ha): 80%
Pre-emergence action against LOLRI ([11]; 320 g/ha): 90%
Pre-emergence action against MATIN ([12]; 20 g/ha): 100%
Pre-emergence action against MATIN ([12]; 80 g/ha): 100%
Pre-emergence action against MATIN ([12]; 320 g/ha): 100%
Post-emergence action against VIOTR in % ([13]; 5 g/ha): 90%
Post-emergence action against VIOTR in % ([13]; 20 g/ha): 90%
Post-emergence action against VIOTR in % ([13]; 80 g/ha): 100%
Pre-emergence action against SETVI ([14]; 20 g/ha): 90%
Pre-emergence action against SETVI ([14]; 80 g/ha): 100%
Pre-emergence action against SETVI ([14]; 320 g/ha): 100%
Pre-emergence action against ECHCG ([15]; 80 g/ha): 100%
Pre-emergence action against ECHCG ([15]; 320 g/ha): 100%
Post-emergence action against ABUTH ([16]; 5 g/ha): 80%
Post-emergence action against ABUTH ([16]; 20 g/ha): 90%
Post-emergence action against ABUTH ([16]; 80 g/ha): 100%
Post-emergence action against VERPE in % [17]: 80%
Post-emergence action against ALOMY [18]: 90%
Pre-emergence action against VERPE [19]: 90%
Post-emergence action against AVEFA in % ([20]; 20 g/ha): 90%
Post-emergence action against AVEFA in % ([20]; 80 g/ha): 100%
Pre-emergence action against HORMU [21]: 90%
Post-emergence action against AMARE in % ([22]; 5 g/ha): 100%
Post-emergence action against AMARE in % ([22]; 20 g/ha): 100%
Post-emergence action against AMARE in % ([22]; 80 g/ha): 100%
Pre-emergence action against AMARE ([23]; 20 g/ha): 100%
Pre-emergence action against AMARE ([23]; 80 g/ha): 100%
Pre-emergence action against AMARE ([23]; 320 g/ha): 100%
Pre-emergence action against ABUTH ([24]; 20 g/ha): 100%
Pre-emergence action against ABUTH ([24]; 80 g/ha): 100%
Pre-emergence action against ABUTH ([24]; Dosage column 320 g/ha (heading prints 3200 g/ha)): 100%
Post-emergence action against ECHCG in % ([25]; 5 g/ha): 80%
Post-emergence action against ECHCG in % ([25]; 20 g/ha): 80%
Post-emergence action against ECHCG in % ([25]; 80 g/ha): 90%
Pre-emergence action against PHBPU [26]: 100%
Pre-emergence action against ALOMY [27]: 90%
Pre-emergence action against POLCO ([28]; 80 g/ha): 80%
Pre-emergence action against POLCO ([28]; 320 g/ha): 100%
